Reference: US20210154280A1, “NEO-EPITOPE VACCINES AND METHODS OF TREATING CANCER” (Epivax Oncology, Inc., priority 2019, published 2021)

What was measured:
[1] = tested on: CT26 tumor cells; assay: CT26 tumor growth and survival after vaccination (Example 1); conditions: N=10 per group
Protocol: Mice were separated into three groups: 1) PBS control; 2) poly-ICLC (vehicle); 3) ANCER™-selected CT26 Neoantigen Peptides+poly-ICLC. • Group 1: PBS, sc injections at days 5, 8, 12, 15, 19, 22, and 26. • Group 2: poly-ICLC, 50 μg, sc injections at days 5, 8, 12, 15, 19, 22, and 26. • Group 3: 5 μg/ANCER™-selected CT26 Neoantigen Peptide (100 μg total ANCER™-selected CT26 Neoantigen Peptides)+50 μg poly-ICLC, sc injections at days 5, 8, 12, 15, 19, 22, and 26.
All mice (N=10 mice per group) were injected 3*10^5 CT26 tumor cells in 0% Matrigel at day 0. Mice were sacrificed once the tumor volume reached 2,000 mm^3 or at day 45, whichever came first.

[2] = tested on: CT26 murine colon tumor cells; assay: Anti-tumor activity with or without poly-ICLC, CT26 murine tumor model (Example 13); type: in vivo, BALB/c mice; conditions: day 25 post-tumor implantation; relative to PBS or poly-ICLC alone; sc twice per week for three weeks
Protocol: The goal of this experiment was to determine the requirement for the inclusion of the adjuvant poly-ICLC in a peptide vaccine containing ANCER™ selected neoantigens. For this experiment, female BALB/c mice were implanted subcutaneously with 3×10^5 CT26 murine colon tumor cells. Tumor growth was monitored by caliper measurement and mice were sacrificed 45 days after tumor implantation or when tumor volumes reached 2000 mm^3, whichever came first.
Four vaccine groups were tested (n=10 mice/group): • Group 1=PBS only • Group 2=PBS with 50 μg poly-ICLC • Group 3=20 ANCER™ selected (uncapped) peptides with 50 μg poly-ICLC • Group 4=20 ANCER™ selected (uncapped) peptides only
Peptide vaccines were comprised of 20 different ANCER™ selected peptides at a concentration of 5 μg/peptide for a total dose of 100 μg peptide per immunization. Mice were immunized subcutaneously in the opposite flank from tumor implantation twice per week for three weeks, starting at day 4 post-tumor implantation.

For poly-ICLC, the “mice that survived the 45 days of the experiment (in words)” value [1] was “None”, the “mice reaching a tumor volume of at least 2,000 mm^3 (endpoint)” value ([1]; by day 28) was 60% and the “control of tumor growth” value [2] was “no difference in tumor growth kinetics”.
